Read-outs that look alike come from different tables or passages of the source.

Experiment [1] relates to Human U937 monocytic cells. In words: U937 IFNγ ICAM1 FACS Assay. The experiment is classed as cell-based. The source says: (§1) The activity of the compounds of the invention may additionally be characterized by assaying the effect of the 2,4-pyrimidinediamine compounds described herein on A549 lung epithelial cells and U937 cells. A549 lung epithelial cells and U937 cells up-regulate ICAM-1 (CD54) surface expression in response to a variety of different stimuli. Therefore, using ICAM-1 expression as readout, test compound effects on different signaling pathways can be assessed in the same cell type. Stimulation with IL-1β through the IL-1β receptor activates the TRAF6/NFκB pathway resulting in up-regulation of ICAM-1. IFNγ induces ICAM-1 up-regulation through activation of the JAK1/JAK2 pathway. The up-regulation of ICAM-1 can be quantified by flow cytometry across a compound dose curve and EC50 values are calculated. An exemplary assays of this type are described in greater detail in Examples 4 and 5.
Human U937 monocytic cells up-regulate ICAM-1 (CD54) surface expression in response to a variety of different stimuli. Therefore, using ICAM-1 expression as readout, compound effects on different signaling pathways can be assessed in the same cell type. IFNγ up-regulates ICAM-1 through activation of the JAK/Stat pathway. In this example, the up-regulation of ICAM-1 by IFNγ was assessed.
The U937 human monocytic cell line was obtained from ATCC of Rockville Md., catalog number CRL-1593.2, and cultured in RPM1-1640 medium containing 10% (v/v) FCS. U937 cells were grown in 10% RPMI. The cells were then plated at a concentration of 100,000 cells per 160 μL in 96 well flat bottom plates. The test compounds were then diluted as follows: 10 mM test compound was diluted 1:5 in DMSO (3 μL 10 mM test compound in 12 μL DMSO), followed by a 1:3 serial dilution of test compound in DMSO (6 μL test compound serially diluted into 12 μL DMSO to give 3-fold dilutions). Then 4 μL of test compound was transferred to 76 μL of 10% RPMI resulting in a 10× solution (100 μM test compound, 5% DMSO). For control wells, 4 μL of DMSO was diluted into 76 μL 10% RPMI.
The assay was performed in duplicate with 8 points (8 3-fold dilution concentrations from […]) and with 4 wells of DMSO only (control wells) under stimulated conditions and 4 wells of DMSO only under unstimulated conditions.
The diluted compound plate was mixed 2× using a multimek (Beckman Coulter of Brea, Calif.) and then 20 μL of the diluted compounds was transferred to the 96 well plate containing 160 μL of cells, which were then mixed again twice at low speeds. The cells and compounds were then pre-incubated for 30 minutes at 37° C. with 5% CO2.
The 10× stimulation mix was made by preparing a 100 ng/mL solution of human IFNγ in 10% RPMI. The cells and compound were then stimulated with 20 μL of IFNγ stimulation mix to give a final concentration of 10 ng/mL IFNγ, 10 μM test compound, and 0.5% DMSO. The cells were kept under conditions for stimulation for 18-24 hours at 37° C. with 5% CO2.
The cells were transferred to a 96 well round bottom plate for staining and then kept on ice for the duration of the staining procedure. Cells were spun down at 1000 rpm for 5 minutes at 4° C., following which the supernatant was removed. Following removal of the supernatant, 1 μL APC conjugated mouse anti-human ICAM-1 antibody was added per 100 μL FACS buffer. The cells were then incubated on ice in the dark for 30 minutes. Following incubation, 150 μL of FACS buffer was added and the cells were centrifuged at 1000 rpm for 5 minutes at 4° C., following which the supernatant was removed. After removal of the supernatant, 200 μL of FACS buffer was added and the cells were resuspended. After suspension, the cells were centrifuged at 1000 rpm for 5 min at 4° C. Supernatant was then removed prior to resuspension of the cells in 150 μL FACS buffer.
Detection was performed using a BD LSR I System Flow Cytometer, purchased from BD Biosciences of San Jose, Calif. […]

The subject of experiment [2] is A549 lung epithelial cells. In words: A549 Epithelial Line Stimulated with IFNγ (ICAM-1 surface expression, FACS). The experiment is classed as cell-based, human. Particulars: IFNγ 75 ng/mL, 24 hours, ICAM-1 (CD54) surface expression by flow cytometry; read-out: Example 4 (IC50, A549 epithelial line stimulated with IFNγ).
Source text: as §1
A549 lung epithelial cells up-regulate ICAM-1 (CD54) surface expression in response to a variety of different stimuli. Therefore, using ICAM-1 expression as readout, compound effects on different signaling pathways can be assessed in the same cell type. IFNγ up-regulates ICAM-1 through activation of the JAK/Stat pathway. In this example, the up-regulation of ICAM-1 by IFNγ was assessed.
The A549 lung epithelial carcinoma cell line originated from the American Type Culture Collection. Routine culturing was with F12K media (Mediatech Inc., Lenexa, Kans., Cat. No. 10-025-CV) with 10% fetal bovine serum, 100 I.U. penicillin and […] streptomycin (complete F12k media). Cells were incubated in a humidified atmosphere of 5% CO2 at 37° C. Prior to use in the assay, A549 cells were washed with PBS and trypsinized (Mediatech Inc., Cat. No. 25-052-CI) to lift the cells. The trypsin cell suspension was neutralized with complete F12K media and centrifuged to pellet the cells. The cell pellet was resuspended in complete F12K media at a concentration of 2.0×10^5/mL. Cells were seeded at 20,000 per well, 100 μL total volume, in a flat bottom tissue culture plate and allowed to adhere overnight.
On day two, A549 cells were pre-incubated with a 2,4-pyrimidinediamine test compound or DMSO (control) (Sigma-Aldrich, St. Louis, Mo., Catalog No. D2650) for 1 hour. The cells were then stimulated with IFNγ (75 ng/mL) (Peprotech Inc., Rocky Hill, N.J., Cat. No. 300-02) and allowed to incubate for 24 hours. The final test compound dose range was 30 μM to 14 nM in 200 μL F12K media containing 5% FBS, 0.3% DMSO.
On day three, the cell media was removed and the cells were washed with 200 μL PBS (phosphate buffered saline). Each well was trypsinized to dissociate the cells, then neutralized by addition of 200 μL complete F12K media. Cells were pelleted and stained with an APC conjugated mouse anti-human ICAM-1 (CD54) (BD Pharmingen, San Diego, Calif., Catalog #559771) antibody for 20 minutes at 4° C. Cells were washed with ice cold FACS buffer (PBS+2% FBS) and surface ICAM-1 expression was analyzed by flow cytometry. Detection was performed using a BD LSR I System Flow Cytometer, purchased from BD Biosciences of San Jose, Calif. Events were gated for live scatter and the geometric mean was calculated (Becton-Dickinson CellQuest software version 3.3, Franklin Lakes, N.J.). Geometric means were plotted against the compound concentration to generate a dose response curve.
In general terms: A flow cytometer gives signals particle by particle.

The mark [3] stands for this setting: IFNγ 10 ng/mL, 18-24 hours, ICAM-1 expression by flow cytometry, read-out: Example 5 (IC50, U937 IFNγ ICAM1 FACS assay).
Where [4] appears, read: Homo sapiens, U-937, IFNγ 10 ng/mL, 18-24 hours, ICAM-1 expression by flow cytometry, read-out: Example 5 (IC50, U937 IFNγ ICAM1 FACS assay).

A word on the IC50: it is the concentration that gives 50% inhibition. As to `CCS(=O)(=O)NCc1ccc(Nc2nc(Nc3ccc(CS(=O)(=O)NC)cc3)ncc2F)cc1` [Compound I-10, N4-(4-ethylsulfonylaminomethyl)phenyl-5-fluoro-N2-(4-methylaminosulfonylmethyl)phenyl-2,4-pyrimidinediamine], the IC50 in experiment [1] (setting [3]) is 469 nM.

With `Cc1cnc(Nc2ccc(CNS(=O)(=O)C3CC3)cc2)nc1Nc1ccc(CNS(=O)(=O)C2CC2)cc1` [II-1, N2,N4-bis(4-cyclopropylsulfonylaminomethyl)phenyl-5-methyl-2,4-pyrimidinediamine], the IC50 in experiment [2] was 6230 nM; in experiment [1] (setting [3]) it was 71.3 nM.

As for `N#CCOc1ccc(Nc2nc(Nc3cccc(CS(N)(=O)=O)c3)ncc2F)cc1` [Compound I-1, N2-[3-(Aminosulfonylmethylene)phenyl]-5-fluoro-N4-(4-cyanomethyleneoxyphenyl)-2,4-pyrimidinediamine], the IC50 in experiment [2] came out at 3070 nM; in experiment [1] (setting [3]), 554 nM.

As to `C#CCOc1ccc(Nc2nc(Nc3ccc4c(c3)CN(S(N)(=O)=O)CC4)ncc2F)cc1` [III-4, N2-(2-Aminosulfonyl-1,2,3,4-tetrahydroisoquinolin-7-yl)-N4-(4-(prop-2-ynyloxy)phenyl)-5-fluoro-2,4-pyrimidinediamine], the IC50 in experiment [1] (Homo sapiens, U-937, read-out: Example 5 (IC50, U937 IFNγ ICAM1 FACS assay)) was determined as 462 nM.

Turning to `CCS(=O)(=O)NCc1ccc(Nc2nc(Nc3ccc(CS(=O)(=O)NC)cc3)ncc2C)cc1` [Compound I-2, N4-(4-ethylsulfonylaminomethyl)phenyl-5-methyl-N2-(4-methylaminosulfonylmethyl)phenyl-2,4-pyrimidinediamine], the IC50 was found to be 1740 nM in experiment [2] and 133 nM in experiment [1] (setting [3]).

As for `CC1(C)Oc2cc(Nc3nc(Nc4cccc(CS(N)(=O)=O)c4)ncc3F)cnc2NC1=O` [IV-1, N2-[3-(Aminosulfonylmethylene)phenyl]-N4-[2,2-dimethyl-3-oxo-4H-pyrid[1,4]oxazin-7-yl]-5-fluoro-2,4-pyrimidinediamine], the IC50 in experiment [1] (setting [3]) came out at 18600 nM.

Regarding `COc1cc(Nc2nc(Nc3ccc4c(c3)CN(S(N)(=O)=O)CC4)ncc2F)ccc1Cl` [III-1, N2-(2-Aminosulfonyl-1,2,3,4-tetrahydroisoquinolin-7-yl)-N4-(4-chloro-3-methoxyphenyl)-5-fluoro-2,4-pyrimidinediamine], in experiment [1] (setting [4]), the IC50 was 1080 nM.

For `CN1C(=O)C(C)(C)Oc2cc(Nc3nc(Nc4cccc(CS(N)(=O)=O)c4)ncc3F)cnc21` [IV-2, N2-[3-(Aminosulfonylmethylene)phenyl]-N4-[2,2-dimethyl-3-oxo-4-methyl-pyrid[1,4]oxazin-7-yl]-5-fluoro-2,4-pyrimidinediamine], the IC50 in experiment [2] is 3500 nM.

In the case of `Cc1cnc(Nc2ccc(S(N)(=O)=O)cc2)nc1Nc1ccc2c(c1)C(NS(C)(=O)=O)CC2` (racemic) [VI-2, (+/−)-N2-(4-Aminosulfonylphenyl)-5-methyl-N4-[1-(methylsulfonyl)aminoindan-6-yl]-2,4-pyrimidinediamine], the 50% inhibitory concentration (IC50) in experiment [1] (setting [4]) was found to be 2580 nM.

`Cc1cnc(Nc2ccc(CCNS(=O)(=O)C3CC3)cc2)nc1Nc1ccc(CCNS(=O)(=O)C2CC2)cc1` [II-2, N2,N4-bis[4-(2-cyclopropylsulfonylamino)ethyl]phenyl-5-methyl-2,4-pyrimidine diamine]: the IC50 in experiment [1] (setting [3]) was determined as 991 nM.

Consider `NS(=O)(=O)N1CCc2ccc(Nc3ncc(F)c(Nc4ccc(CNS(=O)(=O)C5CC5)cc4)n3)cc2C1` [III-2, N2-(2-Aminosulfonyl-1,2,3,4-tetrahydroisoquinolin-7-yl)-N4-[4-(cyclopropylsulfonylaminomethyl)phenyl]-5-fluoro-2,4-pyrimidinediamine], for which, in experiment [1] (setting [4]), the concentration for half-maximal inhibition (IC50) was determined as 164 nM.

Take `CNS(=O)(=O)Cc1ccc(Nc2ncc(F)c(Nc3ccc(CNS(=O)(=O)C4CC4)cc3)n2)cc1` [Compound I-8, N4-(4-cyclopropylsulfonylaminomethyl)phenyl-5-fluoro-N2-(4-methylaminosulfonylmethyl)phenyl-2,4-pyrimidinediamine]: the figures for the IC50 in experiment [2] and in experiment [1] (setting [3]) were 3890 nM and 347 nM, respectively.

The values above are taken from patent US8729087B2, “Compositions and methods for inhibition of the JAK pathway” (Rigel Pharmaceuticals, Inc., priority 2006, dated 2014).
